Assay results reported in paper PMC8016939 (2021).

Key:
[1] = test system: Baby Spinach (bSP) (RNA, aptamer) GGUGAAGGACGGGUCCAGUAGUUCGCUACUGUUGAGUAGAGUGUGAGCUCC; test: fluorescence titration, 1:1 model; settings: 50 mM KCl, 5 mM MgCl2; 10 mM HEPES pH 7.5, 2 µM DFHBI, flow-cell; apparent (one-site model)
[2] = test system: Baby Spinach (bSP) (RNA, aptamer) GGUGAAGGACGGGUCCAGUAGUUCGCUACUGUUGAGUAGAGUGUGAGCUCC; test: fluorescence titration plus absorption spectra, multiple-site model; settings: 50 mM KCl, 5 mM MgCl2; 10 mM HEPES pH 7.5, 2 µM DFHBI, flow-cell; site 1 of 2 (fluorescent complex); derived as K x p, p = 1.8

Kd [1]: 4.4 µM
Kd [2]: 7.9 ± 0.2 µM
Structure (SMILES): CC1=N/C(=C\c2cc(F)c(O)c(F)c2)C(=O)N1C
